Legend:
NS3-NS4 protease = target: T1, NS3-NS4 protease (Hepatitis C virus genotype 1a, UniProt P27958); experiment: NS3-NS4 protease assay / NS3 inhibition assay, Section C; type: biochemical; settings: read-out: NS3-NS4 IC50
T1 construct: Recombinant E. coli or Baculovirus full-length NS3 was diluted to 3.33 μM with assay buffer; made in house; host or cells: E. coli or baculovirus (BV) system
Protocol: NS3 complex formation with NS4A-2.
Recombinant E. coli or Baculovirus full-length NS3 was diluted to 3.33 μM with assay buffer and transfered material to an eppendorf tube and place in water bath in 4° C. refrigerator. The appropriate amount of NS4A-2 to 8.3 mM in assay buffer was added to equal the volume of NS3 in step 2.1.1 (conversion factor −3.8 mg/272 μL assay buffer). The material was transferred to an eppendorf tube and place in water bath in 4° C. refrigerator.
After equilibration to 4° C., equal volumes of NS3 and NS4A-2 solutions were combined in an eppendorf tube, mix gently with a manual pipettor, and incubate mixture for 15 minutes in the 4° C. water bath. Final concentrations in the mixture are […] NS3, 4.15 mM NS4A-2 (2485-fold molar excess NS4A-2).
After 15 minutes at 4° C., the NS3/NS4A-2 eppendorf tube was removed and place it in a room temperature water bath for 10 minutes. NS3/NS4A-2 was alliquoted at appropriate volumes and store at −80° C. (E. coli NS3 run at 2 nM in assay, aliquot at 25 μL. BV NS3 run at 3 nM in assay, aliquot at 30 μL).
Step 2.2.5. Sample compounds were dissolved to 10 mM in DMSO then diluted to 2.5 mM (1:4) in DMSO.
Step 2.2.6. The E. coli. NS3/NS4A-2 was diluted to 4 nM NS3 (1:417.5 of […] stock−18 μL 1.67 μM stock+7497 μL assay buffer). The BV NS3/NS4A-2 was diluted to 6 nM NS3 (1:278.3 of 1.67 μM stock−24 μL 1.67 μM stock+6655 μL assay buffer).
Step 2.2.7. Using the manual multichannel pipettor, and being careful not to introduce bubbles into the plate, 50 μL assay buffer were added to wells A01-H01 of a black Costar 96-well polypropylene storage plate.
Step 2.2.8. Using the manual multichannel pipettor, and being careful not to introduce bubbles into the plate, 50 μL of diluted NS3/NS4A-2 from step 2.2.6 were added to wells A02-H12 of plate in step 2.2.7.
Step 2.2.9. Using the manual multichannel pipettor, and being careful not to introduce bubbles into the plate, 25 μL of the wells in drug dilution plate in step 2.2.5 were transferred to corresponding wells in assay plate in step 2.2.8. The tips on multichannel pipettor were changed for each row of compounds transferred.
Step 2.2.10. Using the manual multichannel pipettor, and being careful not to introduce bubbles into the plate, the contents of the wells from the assay plate in step 2.2.9 were mixed by aspirating and dispensing 35 μL of the 75 μL in each well five times. The tips on the multichannel pipettor were changed for each row of wells mixed.
Step 2.2.11. The plate was covered with a polystyrene plate lid, and the plate from step 2.2.10 containing NS3 protease and sample compounds was pre-incubated 10 minutes at room temperature.
While the plate from step 2.2.11 was pre-incubating, the RETS1 substrate was diluted in a 15 mL polypropylene centrifuge tube. The RETS1 substrate was diluted to 8 μM (1:80.75 of 646 μM stock−65 μL 646 μM stock+5184 μL assay buffer).
After the plate in step 2.2.11 was done pre-incubating, and using the manual multichannel, 25 μL of substrate were added to all wells on the plate. The contents of the wells of plate were quickly mixed, as in step 2.2.10, but mixing 65 μL of the 100 μL in the wells.
The plate was read in kinetic mode on the Molecular Devices SpectraMax Gemini XS plate reader. Reader settings: Read time: 30 minutes, Interval: 36 seconds, Reads: 51, Excitation λ: 335 nm, Emission λ: 495 nm, cutoff: 475 nm, Automix: off, Calibrate: once, PMT: high, Reads/well: 6, Vmax pts: 21 or 28/51 depending on length of linearity of reaction.
IC50s were determined using a four parameter curve fit equation, and converted to Ki's using the following Km's:
where Ki=IC50/(1+[S]/Km))

[1] = tested on: HCV sub-genomic replicon, GS4.3; experiment: Quantitation by ELISA of NPTII in the HCV sub-genomic replicon, GS4.3, Section C; type: cell-based; settings: Hepatitis C virus; GS4.3 cells, 72 h incubation; read-out: EC50
Description: Quantitation by ELISA of the selectable marker protein, Neomycin phosphotransferase II (NPTII) in the HCV Sub-Genomic Replicon, GS4.3
The HCV sub-genomic replicon (1377/NS3-3′, accession No. AJ242652), stably maintained in HuH-7 hepatoma cells, was created by Lohmann et al. Science 285: 110-113 (1999). The replicon-containing cell culture, designated GS4.3, was obtained from Dr. Christoph Seeger of the Institute for Cancer Research, Fox Chase Cancer Center, Philadelphia, Pa.
GS4.3 cells were maintained at 37° C., 5% CO2, in DMEM (Gibco 11965-092) supplemented with L-glutamine 200 mM (100×) (Gibco25030-081), non-essential amino acids (NEAA)(Biowhittaker 13-114E), heat-inactivated (HI) Fetal Bovine Serum(FBS)(Hyclone SH3007.03) and 750 μg/ml geneticin (G418)(Gibco 10131-035). Cells were sub-divided 1:3 or 4 every 2-3 days.
24 h prior to the assay, GS4.3 cells were collected, counted, and plated in 96-well plates (Costar 3585) at 7500 cells/well in 100 μl standard maintenance medium (above) and incubated in the conditions above. To initiate the assay, culture medium was removed, cells were washed once with PBS (Gibco 10010-023) and 90 μl Assay Medium (DMEM, L-glutamine, NEAA, 10% HI FBS, no G418) was added. Inhibitors were made as a 10× stock in Assay Medium, (3-fold dilutions from 10 μM to […] final concentration, final DMSO concentration 1%), 10 μl were added to duplicate wells, plates were rocked to mix, and incubated as above for 72 h.
An NPTII Elisa kit was obtained from AGDIA, Inc. (Compound direct ELISA test system for Neomycin Phosphotransferase II, PSP 73000/4800). Manufacturer's instructions were followed, with some modifications. 10×PEB-1 lysis buffer was made up to include 500 μM PMSF (Sigma P7626, 50 mM stock in isopropanol). After 72 h incubation, cells were washed once with PBS and 150 μl PEB-1 with PMSF was added per well. Plates were agitated vigorously for 15 minutes, room temperature, then frozen at −70° C. Plates were thawed, lysates were mixed thoroughly, and 100 μl were applied to an NPTII Elisa plate. A standard curve was made. Lysate from DMSO-treated control cells was pooled, serially diluted with PEB-1 with PMSF, and applied to duplicate wells of the ELISA plate, in a range of initial lysate amount of 150u1-2.5 ul. In addition, 100 μl buffer alone was applied in duplicate as a blank. Plates were sealed and gently agitated at room temperature for 2 h. Following capture incubation, the plates were washed 5×300 μl with PBS-T (0.5% Tween-20, PBS-T was supplied in the ELISA kit). For detection, a 1× dilution of enzyme conjugate diluent MRS-2 (5×) was made in PBS-T, into which 1:100 dilutions of enzyme conjugates A and B were added, as per instructions. Plates were resealed, and incubated with agitation, covered, room temperature, for 2 h. The washing was then repeated and 100 μl of room temperature TMB substrate was added. After approximately 30 minutes incubation (room temperature, agitation, covered), the reaction was stopped with 50 μl 3M sulfuric acid. Plates were read at 450 nm on a Molecular Devices Versamax plate reader.
Inhibitor effect was expressed as a percentage of DMSO-treated control signal, and inhibition curves were calculated using a 4-parameter equation: y=A+((B−A)/(1+((C/x)^D))), where C is half-maximal activity or EC50.

T1 sequence (P27958 1027-1657): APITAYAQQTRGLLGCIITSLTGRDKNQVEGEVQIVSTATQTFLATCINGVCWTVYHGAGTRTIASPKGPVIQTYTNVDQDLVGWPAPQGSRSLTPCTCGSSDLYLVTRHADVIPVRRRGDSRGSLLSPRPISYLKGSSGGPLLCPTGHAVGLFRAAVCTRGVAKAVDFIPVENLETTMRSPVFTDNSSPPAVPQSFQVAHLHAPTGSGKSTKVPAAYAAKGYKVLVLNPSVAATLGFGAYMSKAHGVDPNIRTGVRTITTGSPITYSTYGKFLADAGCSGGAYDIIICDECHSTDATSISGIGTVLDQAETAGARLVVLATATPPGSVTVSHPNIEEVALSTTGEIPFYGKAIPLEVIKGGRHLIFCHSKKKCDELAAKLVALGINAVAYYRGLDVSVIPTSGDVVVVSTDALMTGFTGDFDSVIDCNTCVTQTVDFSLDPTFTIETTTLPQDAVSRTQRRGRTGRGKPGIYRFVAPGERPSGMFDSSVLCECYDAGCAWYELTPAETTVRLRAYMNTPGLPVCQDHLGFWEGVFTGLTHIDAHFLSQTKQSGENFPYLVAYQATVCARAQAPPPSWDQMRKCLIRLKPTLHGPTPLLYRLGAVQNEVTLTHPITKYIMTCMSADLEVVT

CC(C)(C)OC(=O)N[C@H]1CCCCC/C=C\[C@@H]2C[C@@]2(C(=O)NS(=O)(=O)Nc2ccc(C(F)(F)F)cc2)NC(=O)[C@@H]2C[C@@H](OC(=O)N3Cc4ccccc4C3)CN2C1=O [Compound 132, (1S,4R,6S,14S,18R)-1,3-Dihydro-isoindole-2-carboxylic acid 14-tert-butoxycarbonylamino-4-(4-trifluoromethylphenylaminosulfonyl-aminocarbonyl)-2,15-dioxo-3,16-diaza-tricyclo[14.3.0.0^4,6]nonadec-7-en-18-yl ester]
IC50 (NS3-NS4 protease): < 0.1 µM | EC50 [1]: < 0.1 µM

CC(C)(C)OC(=O)N[C@H]1CCCCC/C=C\[C@@H]2C[C@@]2(C(=O)NS(=O)(=O)N2CCOCC2)NC(=O)[C@@H]2C[C@@H](OC(=O)N3Cc4ccccc4C3)CN2C1=O [Compound 104, (1S,4R,6S,14S,18R)-1,3-Dihydro-isoindole-2-carboxylic acid 14-tert-butoxycarbonylamino-4-(morpholinosulfonyl-aminocarbonyl)-2,15-dioxo-3,16-diaza-tricyclo[14.3.0.0^4,6]nonadec-7-en-18-yl ester]
IC50 (NS3-NS4 protease): < 0.1 µM | EC50 [1]: < 0.1 µM

CC(C)(C)OC(=O)N[C@H]1CCCCC/C=C\[C@@H]2C[C@@]2(C(=O)NS(=O)(=O)N2CCOCC2)NC(=O)[C@@H]2C[C@@H](OC(=O)N3Cc4ccc(Cl)cc4C3)CN2C1=O [Compound 116, (1S,4R,6S,14S,18R)-5-Chloro-1,3-Dihydro-isoindole-2-carboxylic acid 14-tert-butoxycarbonylamino-4-(morpholino-sulfonyl-aminocarbonyl)-2,15-dioxo-3,16-diaza-tricyclo[14.3.0.0^4,6]nonadec-7-en-18-yl ester]
IC50 (NS3-NS4 protease): < 0.1 µM | EC50 [1]: < 1 µM

CC(C)(C)OC(=O)N[C@H]1CCCCC/C=C\[C@@H]2C[C@@]2(C(=O)NS(=O)(=O)NC2CC2)NC(=O)[C@@H]2C[C@@H](OC(=O)N3CCc4ccccc4C3CN3CCCCC3)CN2C1=O (some centres unmarked) [Compound 108]
IC50 (NS3-NS4 protease): < 1 µM | EC50 [1]: < 0.1 µM

CC(C)(C)OC(=O)N[C@H]1CCCCC/C=C\[C@@H]2C[C@@]2(C(=O)NS(=O)(=O)NC2CC2)NC(=O)C2C[C@@H](OC(=O)N3Cc4cccc(F)c4C3)CN2C1=O (some centres unmarked) [Compound 121]
IC50 (NS3-NS4 protease): < 0.1 µM | EC50 [1]: < 0.1 µM

CN1CCC(N(C2CC2)S(=O)(=O)NC(=O)[C@@]23C[C@H]2/C=C\CCCCC[C@H](NC(=O)OC(C)(C)C)C(=O)N2C[C@H](OC(=O)N4Cc5ccccc5C4)C[C@H]2C(=O)N3)CC1 [Compound 124, (1S,4R,6S,14S,18R)-1,3-Dihydro-isoindole-2-carboxylic acid 14-tert-butoxycarbonylamino-4-(cyclopropyl(1-methylpiperidin-4-yl)aminosulfonyl-aminocarbonyl)-2,15-dioxo-3,16-diaza-tricyclo[14.3.0.0^4,6]nonadec-7-en-18-yl ester]
IC50 (NS3-NS4 protease): < 1 µM | EC50 [1]: < 0.1 µM

CC(C)(C)OC(=O)N[C@H]1CCCCC/C=C\[C@@H]2C[C@@]2(C(=O)NS(=O)(=O)NC2CC2)NC(=O)[C@@H]2C[C@@H](OC(=O)N3Cc4ccc(Cl)cc4C3)CN2C1=O [Compound 114]
IC50 (NS3-NS4 protease): < 0.1 µM | EC50 [1]: < 0.1 µM

CC(C)(C)OC(=O)N[C@H]1CCCCC/C=C\[C@@H]2C[C@@]2(C(=O)NS(=O)(=O)N2CCC2)NC(=O)[C@@H]2C[C@@H](OC(=O)N3Cc4ccccc4C3)CN2C1=O [Compound 117, (1S,4R,6S,14S,18R)-1,3-Dihydro-isoindole-2-carboxylic acid 14-tert-butoxycarbonylamino-4-(azetidino-sulfonyl-aminocarbonyl)-2,15-dioxo-3,16-diaza-tricyclo[14.3.0.0^4,6]nonadec-7-en-18-yl ester]
IC50 (NS3-NS4 protease): < 0.1 µM | EC50 [1]: < 0.1 µM

CC(C)(C)OC(=O)N[C@H]1CCCCC/C=C\[C@@H]2C[C@@]2(C(=O)NS(=O)(=O)N2CCCC2)NC(=O)[C@@H]2C[C@@H](OC(=O)N3CCc4ccccc4C3CN3CCCCC3)CN2C1=O (stereo partly drawn) [Compound 109, (1S,4R,6S,14S,18R)-1-Piperidin-1-ylmethyl-3,4-dihydro-1H-isoquinoline-2-carboxylic acid 14-tert-butoxycarbonylamino-2,15-dioxo-4-(pyrrolidino-sulfonylaminocarbonyl)-3,16-diaza-tricyclo[14.3.0.0^4,6]nonadec-7-en-18-yl ester]
IC50 (NS3-NS4 protease): < 0.1 µM | EC50 [1]: < 1 µM

CC(C)(C)OC(=O)N[C@H]1CCCCC/C=C\[C@@H]2C[C@@]2(C(=O)NS(=O)(=O)NC2CC2)NC(=O)[C@@H]2C[C@@H](OC(=O)N3Cc4ccccc4C3)CN2C1=O [Compound 102]
IC50 (NS3-NS4 protease): < 0.1 µM | EC50 [1]: < 0.1 µM

From patent US7491794B2, “Macrocyclic compounds as inhibitors of viral replication” (Intermune, Inc., priority 2003, dated 2009)
